In patent publication US11160787B2, “4-(4-chlorophenyl)-5-methylene-pyrrol-2-one and 5-methylene-4-(p-tolyl)pyrrol-2-one for use in the treatment of gram negative bacterial infections” (priority 2016, dated 2021):
Entries after “also recorded” stand apart in the source; their conditions may differ.

Legend:
[1] = molecular target: T1, PqsR (Pseudomonas aeruginosa, UniProt Q9I4X0); details: read-out: EC50 of PQS for pqsA::lux expression; PAO1-L ΔpqsA pqsA::lux, without lactam; cited from earlier work
T1 construct: By using the AQ-non producing P. aeruginosa strain PAO1-L ΔpqsA, pqsA::lux; endogenous in cells; host or cells: P. aeruginosa PAO1-L ΔpqsA, pqsA::lux

[2] = system: P. aeruginosa strain PAO1-L; test: Pyocyanin production by PAO1-L, visually assessed; format: cell-based, Pseudomonas aeruginosa; details: 100 μM (vial 2), 8 h at 37° C., FIG. 5
From the text: Pyocyanin is a blue redox-active secondary metabolite and a putative signalling molecule in P. aeruginosa (Jayaseelan et al, 2014). The pyocyanin biosynthetic (phz) genes are regulated by QS and in part via the transcriptional regulator PqsR acting through PqsE (Rampioni et al 2011).
Although qualitative, this observation offers further confirmation of the inhibitory effects of lactam 4-(4-chlorophenyl)-5-methylene-pyrrol-2-one (Ref. 488) on AQ-dependent QS.

[3] = molecular target: T1, PqsR; test: PQS-dependent expression of pqsA::lux in AQ-non producing PAO1-L ΔpqsA (PqsR antagonism); format: cell-based
Description: By using the AQ-non producing P. aeruginosa strain PAO1-L ΔpqsA, pqsA::lux, the EC50 value for the native PqsR agonist, PQS was calculated as ˜2 μM (Ilangovan et al. 2013).
The experiment shown in FIG. 8 was then repeated using 4-(4-chlorophenyl)-5-methylene-pyrrol-2-one (Ref. 488) concentrations of 0, 50, 100 and 200 μM.
A partial agonist is a molecule that can bind to and activate a receptor resulting in a non-complete response compared with a full agonist. […] This contrasts with its activity as an antagonist in the presence of 10 or 40 μM PQS.

[4] = system: P. aeruginosa PAO1 pqsA::lux; test: pqsA::lux promoter fusion expression in P. aeruginosa PAO1-L biosensor (AQ-dependent quorum sensing); format: cell-based, Pseudomonas aeruginosa; details: for extent of inhibition of light output / pqsA expression at high concentrations: PAO1-L pqsA::lux; for IC50: Pseudomonas aeruginosa, PAO1, read-out: IC50 for inhibition of pqsA::lux expression
Description: The expression of rhl and las AHL- and the pqsA AQ-synthase genes was evaluated using lux-based lasl (FIG. 1), rhll (FIG. 2) and pqsA (FIG. 3) chromosomally integrated promoter fusions. Luminescence was quantified as a function of bacterial growth. The applicant further determined that none of the lactams is growth inhibitory at 100 μM using a large number of strains (figure not shown).
To determine the relative inhibitory activities (IC50s) of 4-(4-chlorophenyl)-5-methylene-pyrrol-2-one (Ref. 488) and 5-methylene-4-(p-tolyl)pyrrol-2-one (Ref. 491), dose response curves were constructed using the same biosensor strain (P. aeruginosa PAO1 pqsA::lux; Fletcher et al, 2007; Ilangovan et al 2013). This strain produces light in response to the endogenous production of AQs such as PQS and HHQ.

[5] = system: PAO1-N ΔpqsAHR pqsA'::lux; test: PqsR-independent expression of pqsA'::lux in PAO1-N ΔpqsAHR; format: cell-based, Pseudomonas aeruginosa; details: presence or absence of 40 μM PQS, FIG. 11
From the text: PQS is capable of weakly activating pqsA in the absence of PqsR via a mechanism that is not fully understood but appears to depend on the iron chelating properties of PQS. The aim of this experiment was to clarify whether lactam 4-(4-chlorophenyl)-5-methylene-pyrrol-2-one (Ref. 488) is also inhibitory for pqsA expression via the PqsR independent pathway. As previously described, the pqsA′::lux biosensor based on the triple mutant PAO1-N ΔpqsAHR cannot produce AQs and lacks pqsR but still responds to exogenous PQS. This response is however much weaker that the PqsR-dependent response.

[6] = system: PqsABCD; test: HHQ production by PAO1-N ΔpqsAHR pBBR-pqsABCD, TLC with AQ biosensor overlay; format: cell-based, Pseudomonas aeruginosa; details: 488 200 μM, overnight in LB, FIG. 13
From the text: To determine whether 4-(4-chlorophenyl)-5-methylene-pyrrol-2-one (Ref. 488) is capable of inhibiting the enzymes (PqsABCD) involved in AQ biosynthesis, the P. aeruginosa PAO1-N ΔpqsAHR was exploited. This mutant cannot produce AQs because the genes coding for the key biosynthetic enzymes (PqsA and PqsH) and regulation (PqsR) have been deleted. To restore AQ production in a PqsR-independent manner in PAO1-N ΔpqsA, the pqsABCD genes were introduced on a plasmid (pBBR pqsABCD; Niewerth et al. 2011). P. aeruginosa PAO1-N ΔpqsAHR and P. aeruginosa PAO1-N ΔpqsAHR pBBR pqsABCD were both incubated overnight in LB with and without 4-(4-chlorophenyl)-5-methylene-pyrrol-2-one (Ref. 488) (200 μM), resuspended to an OD600 1.0. The cultures were extracted with acidified ethyl acetate, the organic phase removed, dried and resuspended in methanol subjected to thin layer chromatography (TLC).
After chromatography using a dichloromethane-methanol mobile phase, the TLC plates were overlaid with a thin agar layer containing the AQ biosensor strain PAO1-L ΔpqsA CTX::pqsA′-luxCDABE (Fletcher et al. 2007) incubated and examined for reporter output (FIG. 13). […] The biosensor strain produces light (FIG. 13 panel C) and pyocyanin (FIG. 13 panel B) in response to AQs that bind to PqsR and activate the pqsA promoter.

T1 sequence (Q9I4X0 whole entry): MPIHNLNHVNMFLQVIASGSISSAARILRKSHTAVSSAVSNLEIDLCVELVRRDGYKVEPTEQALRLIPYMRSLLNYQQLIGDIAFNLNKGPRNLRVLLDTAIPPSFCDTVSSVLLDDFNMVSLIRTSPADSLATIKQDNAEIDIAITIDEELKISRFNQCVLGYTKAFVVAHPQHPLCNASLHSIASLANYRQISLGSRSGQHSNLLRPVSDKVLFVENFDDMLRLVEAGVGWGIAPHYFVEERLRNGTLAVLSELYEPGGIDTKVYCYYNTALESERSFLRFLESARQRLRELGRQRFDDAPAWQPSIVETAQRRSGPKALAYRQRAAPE

Row | Compound | EC50 [1] [µM] | pyocyanin production in culture supernatant [2] | mode of antagonism of PQS-dependent pqsA::lux expression ([3]; 488 at 0, 50, 100 and 200 μM, FIG. 9) | restoration of light output by PQS in the presence of 488 ([3]; 488 at 50, 100, 200 μM, PAO1-L ΔpqsA, FIG. 9) | partial agonist activity (activation of pqsA expression) ([3]; PAO1-L ΔpqsA pqsA'::lux, concentrations up to 800 μM, FIG. 10) | fold increase of PQS EC50 caused by the lactam ([3]; fixed concentration of 488 (215 μM), range of PQS concentrations) [fold] | extent of inhibition of light output / pqsA expression at high concentrations [4] | IC50 [4] [µM] | relative inhibition of PqsR-dependent pqsA::lux promoter fusion in screening ([4]; lactams at 100 μM, FIG. 3) | effect on PqsR-independent expression of pqsA [5] | effect on HHQ biosynthesis [6]
1 | CCCCCCCc1[nH]c2ccccc2c(=O)c1O [PQS, 2-heptyl-3-hydroxy-4-(1H)-quinolone] | ~2 | – | – | – | – | – | – | – | – | – | –
2 | C=C1NC(=O)C=C1c1ccc(Cl)cc1 [Ref. 488, 4-(4-chlorophenyl)-5-methylene-pyrrol-2-one] | – | absence of green pigmentation | competitive antagonist | fully restoring light output in the presence of 50 μM but not 100 μM or 200 μM | no partial agonist activity | ~15 | completely inhibited light output; also recorded: fully knock out the PQS | 22 | most potent inhibitor | small inhibitory effect | did not inhibit HHQ biosynthesis
3 | C=C1NC(=O)C=C1c1ccc(C)cc1 [Ref. 491, 5-methylene-4-(p-tolyl)pyrrol-2-one] | – | – | – | – | – | – | did not inhibit pqsA expression as strongly; also recorded: did not give complete knock out at higher concentration | 44 | – | – | –
